Test results published in patent publication EP0200794A1, “Derivatives of ubiquinone, process for their preparation and pharmaceutical compositions containing them” (MAGIS FARMACEUTICI S.p.A., priority 1985, dated 1986).

Legend:
[1] = system: rats of Sprague-Dawley stock; experiment: Chronic toxicity; assay type: in vivo; details: Sprague-Dawley rats of both sexes, oral and intravenous way, 50 mg/kg per day for three months
Procedure: The chronic toxicity of the new derivatives has been studied by oral and intravenous way in the rats of Sprague-Dawley stock of both sexes, of body weight of about 210 g. The new derivatives, used as drops or in aqueous solution, have been administred to groups of 10 animals (5 males and 5 females). The tests have been carried out in parallel with equivalent amounts of ubiquinone (hydroalcoholic solution). The doses have been of 50 mg/kg per day for three months.

[2] = Light stability in oral preparations; assay type: physicochemical

Compound	toxic effects (chronic toxicity) [1]	stability under the effect of the light [2]
COC1=C(OC)C(=O)C(C/C=C(\C)CC/C=C(\C)CC/C=C(\C)CC/C=C(\C)CC/C=C(\C)CC/C=C(\C)CC/C=C(\C)CC/C=C(\C)CC/C=C(\C)CCC=C(C)C)=C(C)C1=O [ubiquinone, Ubiquinone(10)]	No toxic effects	
Ubiquinone bisulphite [Example 1]		high stability
